Test results from PMC6979384, “Characterization of the plant homeodomain (PHD) reader family for their histone tail interactions” (Epigenetics & Chromatin, 2020).

Assays:
Experiment in all cases: Histone peptide microarray
Assay type in all cases: binding, human
[1] = test system: AIRE (PP); settings: AIRE (PP); sheet "Array Heatmap"; each array performed twice, total n = 4
Description: (§1) To more comprehensively define the histone interactions of the 31 PHD readers identified from the domain microarray analyses, we probed each on an alternate microarray platform containing a library of 293 synthetic histone peptides with single or combinatorial PTMs (Additional file 2: Figure S4 and Additional file 3: Table S2).
(§2) The 31 GST-tagged PHD readers identified in the PHD finger domain array were expressed and purified as previously. Histone peptide arrays and peptide pulldown assays were conducted as recently described (specifically, the optimized protocol from Petell et al. for the former).
(§3) Supplementary file 13072_2020_328_MOESM3_ESM.xlsx: Additional file 3: Table S2. […] Excel Tab Peptide List is a compiled list of the entire 293 histone peptide library with amino acid sequence ranges. […] Each number corresponds to the peptide number designated in Peptide List. Excel Tab Average Signals is a compiled set of binding data: chromatin reader at 0.5 μM vs. entire 293 peptide library. Data is presented as the average and standard deviation of 4 replicates. The average signals are colored to indicate signal intensity with green being strong and white being weak/low. […] Key: red= stronger relative binding; blue = weaker relative binding. Excel Tab Array info summary is a table summarizing the domains, sequence coverage, array signal range, and noise for each of the GST-tagged readers assayed on the peptide microarrays.

[2] = test system: BAZ2B; settings: BAZ2B; sheet "Array Heatmap"; each array performed twice, total n = 4
Description: as §1, §2, §3

[3] = test system: BPTF (PB); settings: BPTF (PB); sheet "Array Heatmap"; each array performed twice, total n = 4
Description: as §1, §2, §3

[4] = test system: CHD4 (PPCC); settings: CHD4 (PPCC); sheet "Array Heatmap"; each array performed twice, total n = 4
Description: as §1, §2, §3

[5] = test system: CHD5 (PCC); settings: CHD5 (PCC); sheet "Array Heatmap"; each array performed twice, total n = 4
Description: as §1, §2, §3

[6] = test system: CHD5 (PPCC); settings: CHD5 (PPCC); sheet "Array Heatmap"; each array performed twice, total n = 4
Description: as §1, §2, §3

[7] = test system: DIDO1; settings: DIDO1; sheet "Array Heatmap"; each array performed twice, total n = 4
Description: as §1, §2, §3

[8] = test system: DPF2 (PPC2W2); settings: DPF2 (PPC2W2); sheet "Array Heatmap"; each array performed twice, total n = 4
Description: as §1, §2, §3

[9] = test system: ING1; settings: ING1; sheet "Array Heatmap"; each array performed twice, total n = 4
Description: as §1, §2, §3

[10] = test system: ING2; settings: ING2; sheet "Array Heatmap"; each array performed twice, total n = 4
Description: as §1, §2, §3

[11] = test system: ING3; settings: ING3; sheet "Array Heatmap"; each array performed twice, total n = 4
Description: as §1, §2, §3

[12] = test system: ING4; settings: ING4; sheet "Array Heatmap"; each array performed twice, total n = 4
Description: as §1, §2, §3

[13] = test system: ING5; settings: ING5; sheet "Array Heatmap"; each array performed twice, total n = 4
Description: as §1, §2, §3

[14] = test system: KDM4C (TTP); settings: KDM4C (TTP); sheet "Array Heatmap"; each array performed twice, total n = 4
Description: as §1, §2, §3

[15] = test system: KDM5A (1); settings: KDM5A (1); sheet "Array Heatmap"; each array performed twice, total n = 4
Description: as §1, §2, §3

[16] = test system: KDM5A (3); settings: KDM5A (3); sheet "Array Heatmap"; each array performed twice, total n = 4
Description: as §1, §2, §3

[17] = test system: KDM5B (1); settings: KDM5B (1); sheet "Array Heatmap"; each array performed twice, total n = 4
Description: as §1, §2, §3

[18] = test system: KDM5B (3); settings: KDM5B (3); sheet "Array Heatmap"; each array performed twice, total n = 4
Description: as §1, §2, §3

[19] = test system: KDM7A; settings: KDM7A; sheet "Array Heatmap"; each array performed twice, total n = 4
Description: as §1, §2, §3

[20] = test system: MLL5; settings: MLL5; sheet "Array Heatmap"; each array performed twice, total n = 4
Description: as §1, §2, §3

[21] = test system: MORC3 (CW); settings: MORC3 (CW); sheet "Array Heatmap"; each array performed twice, total n = 4
Description: as §1, §2, §3

[22] = test system: PHF13; settings: PHF13; sheet "Array Heatmap"; each array performed twice, total n = 4
Description: as §1, §2, §3

[23] = test system: PHF21A; settings: PHF21A; sheet "Array Heatmap"; each array performed twice, total n = 4
Description: as §1, §2, §3

[24] = test system: PHF23; settings: PHF23; sheet "Array Heatmap"; each array performed twice, total n = 4
Description: as §1, §2, §3

[25] = test system: PHF2; settings: PHF2; sheet "Array Heatmap"; each array performed twice, total n = 4
Description: as §1, §2, §3

[26] = test system: PHF8; settings: PHF8; sheet "Array Heatmap"; each array performed twice, total n = 4
Description: as §1, §2, §3

[27] = test system: PHRF1 (RP); settings: PHRF1 (RP); sheet "Array Heatmap"; each array performed twice, total n = 4
Description: as §1, §2, §3

[28] = test system: RAG2; settings: RAG2; sheet "Array Heatmap"; each array performed twice, total n = 4
Description: as §1, §2, §3

[29] = test system: SP140L; settings: SP140L; sheet "Array Heatmap"; each array performed twice, total n = 4
Description: as §1, §2, §3

[30] = test system: TAF3; settings: TAF3; sheet "Array Heatmap"; each array performed twice, total n = 4
Description: as §1, §2, §3

[31] = test system: TRIM66 (PB); settings: TRIM66 (PB); sheet "Array Heatmap"; each array performed twice, total n = 4
Description: as §1, §2, §3

| Substance | Array Heatmap value (peptide array signal) [1] | Array Heatmap value (peptide array signal) [2] | Array Heatmap value (peptide array signal) [3] | Array Heatmap value (peptide array signal) [4] | Array Heatmap value (peptide array signal) [5] | Array Heatmap value (peptide array signal) [6] | Array Heatmap value (peptide array signal) [7] | Array Heatmap value (peptide array signal) [8] | Array Heatmap value (peptide array signal) [9] | Array Heatmap value (peptide array signal) [10] | Array Heatmap value (peptide array signal) [11] | Array Heatmap value (peptide array signal) [12] | Array Heatmap value (peptide array signal) [13] | Array Heatmap value (peptide array signal) [14] | Array Heatmap value (peptide array signal) [15] | Array Heatmap value (peptide array signal) [16] | Array Heatmap value (peptide array signal) [17] | Array Heatmap value (peptide array signal) [18] | Array Heatmap value (peptide array signal) [19] | Array Heatmap value (peptide array signal) [20] | further results |
| --- | --- | --- | --- | --- | --- | --- | --- | --- | --- | --- | --- | --- | --- | --- | --- | --- | --- | --- | --- | --- | --- |
| H2BK12ac: H2B 1-24 [Peptide H2BK12ac] | 0.3561 | 0.3626 | 0.2975 | 0.55 | 0.7553 | 0.4364 | 0.6693 | 0.6335 | 0.4874 | 0.5927 | 0.413 | 0.3767 | 0.2703 | 0.3788 | 0.3805 | 0.4192 | 0.5631 | 0.4029 | 0.2936 | 0.5021 | Array Heatmap value (peptide array signal) [21]: 0.3313; Array Heatmap value (peptide array signal) [22]: 0.5184; Array Heatmap value (peptide array signal) [23]: 0.4277; Array Heatmap value (peptide array signal) [24]: 0.4647; Array Heatmap value (peptide array signal) [25]: 0.5083; Array Heatmap value (peptide array signal) [26]: 0.311; Array Heatmap value (peptide array signal) [27]: 0.4148; Array Heatmap value (peptide array signal) [28]: 0.2122; Array Heatmap value (peptide array signal) [29]: 0.3291; Array Heatmap value (peptide array signal) [30]: 0.2326; Array Heatmap value (peptide array signal) [31]: 0.5657 |
| H2BK15ac: H2B 1-24 [Peptide H2BK15ac] | 0.4221 | 0.4604 | 0.3575 | 0.606 | 0.7574 | 0.5537 | 0.6647 | 0.6359 | 0.5436 | 0.6208 | 0.4826 | 0.465 | 0.3652 | 0.4832 | 0.465 | 0.4161 | 0.6467 | 0.457 | 0.3558 | 0.5596 | Array Heatmap value (peptide array signal) [21]: 0.3521; Array Heatmap value (peptide array signal) [22]: 0.6426; Array Heatmap value (peptide array signal) [23]: 0.4803; Array Heatmap value (peptide array signal) [24]: 0.5678; Array Heatmap value (peptide array signal) [25]: 0.5204; Array Heatmap value (peptide array signal) [26]: 0.3468; Array Heatmap value (peptide array signal) [27]: 0.4303; Array Heatmap value (peptide array signal) [28]: 0.2507; Array Heatmap value (peptide array signal) [29]: 0.361; Array Heatmap value (peptide array signal) [30]: 0.2676; Array Heatmap value (peptide array signal) [31]: 0.5831 |
| H2BK16ac: H2B 1-24 [Peptide H2BK16ac] | 0.4203 | 0.4705 | 0.3487 | 0.5943 | 0.7842 | 0.5498 | 0.7223 | 0.6685 | 0.5501 | 0.6054 | 0.4774 | 0.4481 | 0.3562 | 0.4673 | 0.4583 | 0.4534 | 0.6719 | 0.4678 | 0.3335 | 0.5839 | Array Heatmap value (peptide array signal) [21]: 0.3691; Array Heatmap value (peptide array signal) [22]: 0.6297; Array Heatmap value (peptide array signal) [23]: 0.4621; Array Heatmap value (peptide array signal) [24]: 0.5681; Array Heatmap value (peptide array signal) [25]: 0.5633; Array Heatmap value (peptide array signal) [26]: 0.3517; Array Heatmap value (peptide array signal) [27]: 0.501; Array Heatmap value (peptide array signal) [28]: 0.2422; Array Heatmap value (peptide array signal) [29]: 0.3579; Array Heatmap value (peptide array signal) [30]: 0.2759; Array Heatmap value (peptide array signal) [31]: 0.6089 |
